Laboratory results published in US11136339B2, “Dihydroartemisinin diploid derivative, pharmaceutical composition thereof, and application” (priority 2017, dated 2021).
Converted amounts (≈) assume the structure as drawn.

Columns and labels:
[1] = In-vivo toxicity test of a mouse, oral administration; conditions: ICR mouse, male
Description: Animal: ICR mouse, male, 18 g to 22 g, purchased from Vital River Laboratory Animal Technology Co., Ltd.

Solubility in water = type: physicochemical; conditions: 20 °C
Description: 0.1 g of product B was dissolved in 20 mL of dichloromethane, added with 10 ml of TFA and 1 mL of triisopropylsilane, and reacted at 25° C. for 2 h. A reaction solution was diluted to 50 mL with dichloromethane, washed three times with saturated NaHCO3, and dried with Na2SO4, and a solvent was evaporated by rotation to obtain crude products. The crude product was purified by silica gel column (a mobile phase was dichloromethane: methanol/65:25) to obtain product of dihydroartemisinin dithiodiglycolic acid dimer carboxyl betaine. […] MS: [M+H]^+ 1039.27.

[2] = tested on: human erythrocyte infected by plasmodium strain (3D7); assay: Plasmodium killing test, SYBR Green I fluorescence method; type: cell-based; conditions: 3D7, Erythrocyte, 48 h, read-out: median inhibitory concentration IC50 for killing plasmodium
Description: Method: a plasmodium killing effect of a sample measured by a SYBR Green I fluorescence method
Material: human erythrocyte infected by plasmodium strain (3D7) (0.5% parasitemia), RPMI 1640 complete medium, and carbon dioxide incubator (5% CO2, 5% O2, equilibrium N2, and 37° C.)
The medium was blank. The erythrocytes were incubated in a carbon dioxide incubator for 48 h (37° C.).

[3] = tested on: MCF-7: human breast cancer cells; assay: Human cancer cell killing test by MTT method, MCF-7; type: cell-based; conditions: MCF7, 96 h, read-out: IC50 MCF-7
Description: (§1) Well-growing tumor cells were collected, a RPM11640 medium containing 10% fetal bovine serum was used to prepare […] cell suspension, the tumor cells were inoculated in a 96-well culture plate, and 100 μL of the cell suspension (containing 1000 tumor cells) was added into each well, cultured in 5% CO2 incubator at 37° C. for 24 h, and then added with drugs (see Table 2). Blank control and solvent control were set in the experiment, and tested samples were set with four concentrations, with three parallel wells for each concentration, and cultured in 5% CO2 incubator at 37° C. for 4 days. A culture solution was discarded, and 100 μL of MTT solution (0.4 mg/mL, RPM11640 preparation) was added into each well and incubated at 37° C. for 4 h. A supernatant was discarded, 150 μL of […] was added into each well to dissolve particles, and after slight shaking, an OD value was measured at a detection wavelength of 540 nm and a reference wavelength of 450 nm with a 550 microplate reader.
(§2) Result calculation: a dose-response curve can be obtained by plotting different concentrations of drugs and inhibition rates to cells, from which the median inhibitory concentration (IC50) can be obtained, and results are shown in Table 2. […] This is probably because that the artesunate is released slowly. […]

[4] = tested on: Hep G2: human liver cancer cells; assay: Human cancer cell killing test by MTT method, Hep G2; type: cell-based; conditions: HepG2, 96 h, read-out: IC50 Hep G2
Description: as §1, §2

[5] = tested on: A549: human lung adenocarcinoma cells; assay: Human cancer cell killing test by MTT method, A549; type: cell-based; conditions: A549, 96 h, read-out: IC50 A549
Description: as §1, §2

HeLa: = assay: Human cancer cell killing test by MTT method, HeLa; type: cell-based; conditions: 96 h, read-out: IC50 HeLa
Description: as §1, §2

[6] = tested on: HL-60: human promyelocytic leukemia cells; assay: Human cancer cell killing test by MTT method, HL-60; type: cell-based; conditions: HL-60, 96 h, read-out: IC50 HL-60
Description: as §1, §2

in vivo = conditions: female, BALB/c, mouse, iv, 10 mg/kg
Description: BALB/c mice (female, five weeks, 20 g to 22 g) were divided into four groups (three mice in each group). […] A PBS solution of drugs was injected through tail vein.
Blood samples were respectively taken at predetermined times (0.25 h, 0.5 h, 1 h, 3 h, 6 h, 12 h, 24 h and 48 h) and centrifuged at 3,000 rpm for 10 min to obtain plasma.

Question: Which “Oral median lethal dose” value [1] does the source give for C[C@H]1[C@@H](O)O[C@@H]2O[C@@]3(C)CC[C@H]4[C@H](C)CC[C@@H]1[C@@]24OO3 [Dihydroartemisinin] here?
Answer: 810 mg/kg weight

Question: For C[C@H]1[C@H](OC(=O)CCC(=O)O)O[C@@H]2O[C@@]3(C)CC[C@H]4[C@H](C)CC[C@@H]1[C@@]24OO3 [Artesunate], which solubility (Solubility in water) is on record?
Answer: 360 µg/mL (≈ 936 µM)

Question: And the IC50 [2]?
Answer: 10.3 nM

Question: And the IC50 [3]?
Answer: 150 µg/mL (≈ 390 µM)

Question: What about the IC50 [4] of the same compound?
Answer: 100 µg/mL (≈ 260 µM)

Question: What about the IC50 [5] of the same compound?
Answer: 110 µg/mL (≈ 286 µM)

Question: What about the IC50 (HeLa:) of the same compound?
Answer: 130 µg/mL (≈ 338 µM)

Question: What about the IC50 [6] of the same compound?
Answer: 130 µg/mL (≈ 338 µM)

Question: And the AUC(0-t) (in vivo)?
Answer: 80700 ng·h/mL

Question: What about the Cmax (in vivo) of the same compound?
Answer: 23400 ng/mL

Question: And the MRT last (in vivo)?
Answer: 2.71 h

Question: And the clearance (in vivo)?
Answer: 3.73 mL/min/kg

Question: And the half-life (in vivo)?
Answer: 1.52 h
